Source: PubChem BioAssay AID602347 (The Scripps Research Institute Molecular Screening Center, 2012)

Target: Monoacylglycerol lipase ABHD6 (Mus musculus) (UniProt Q8R2Y0)
Assay: ABHD6 inhibition in mouse brain after dosing, late-stage follow-up, in vivo study for DAGLb inhibitor project, gel-based competitive ABPP, fluorescence (AID 602347)
Conditions: active compounds read high, dose or concentration not given here

Monoacylglycerol lipase ABHD6 (Mus musculus), sequence (Q8R2Y0 whole entry, looked up): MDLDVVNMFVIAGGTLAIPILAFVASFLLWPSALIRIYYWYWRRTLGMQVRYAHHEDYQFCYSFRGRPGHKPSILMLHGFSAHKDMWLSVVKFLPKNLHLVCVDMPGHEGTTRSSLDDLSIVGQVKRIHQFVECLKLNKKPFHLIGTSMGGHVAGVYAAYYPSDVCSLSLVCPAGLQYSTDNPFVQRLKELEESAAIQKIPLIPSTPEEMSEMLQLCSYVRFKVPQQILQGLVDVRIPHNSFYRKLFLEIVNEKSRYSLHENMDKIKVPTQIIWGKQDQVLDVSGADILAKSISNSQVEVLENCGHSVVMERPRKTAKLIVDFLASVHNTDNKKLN

**Q.** Which inhibition (with FP-Rh probe) does the source give for O=C(N1CCCCC1Cc1ccccc1)n1cc(-c2ccc(-c3ccccc3)cc2)nn1 (stereo unspecified) here?
**A.** The inhibition was 100%.

**Q.** What about the inhibition (with HT-01 probe) of the same compound?
**A.** Its inhibition is 100%.

**Q.** COc1ccccc1-c1ccc(-c2cn(C(=O)N3CCCCC3Cc3ccccc3)nn2)cc1 (stereo unspecified) was tested. Which inhibition (with FP-Rh probe) did it give?
**A.** The inhibition was 100%.

**Q.** What about the inhibition (with HT-01 probe) of the same compound?
**A.** The inhibition was 100%.

**Q.** Which inhibition (with FP-Rh probe) does the source give for O=C(N1CCCCC1Cc1ccccc1)n1cc(-c2ccc(-c3ccccc3C(F)(F)F)cc2)nn1 (stereo unspecified) here?
**A.** Its inhibition is 95%.

**Q.** And the inhibition (with HT-01 probe)?
**A.** The inhibition was 95%.
